According to ChEMBL document CHEMBL4507276 (2021):

Experiments:
[1] = biological target: RAC-beta serine/threonine-protein kinase (Homo sapiens) (UniProt P31751); test: AKT2 Invitrogen selectivity data (BI); details: Compound concentration 3.0 uM
[2] = biological target: T1, Mitogen-activated protein kinase 13 (Homo sapiens) (UniProt O15264); test: MAPK13 Invitrogen selectivity data (BI); details: Compound concentration 3.0 uM
T1 sequence (whole entry): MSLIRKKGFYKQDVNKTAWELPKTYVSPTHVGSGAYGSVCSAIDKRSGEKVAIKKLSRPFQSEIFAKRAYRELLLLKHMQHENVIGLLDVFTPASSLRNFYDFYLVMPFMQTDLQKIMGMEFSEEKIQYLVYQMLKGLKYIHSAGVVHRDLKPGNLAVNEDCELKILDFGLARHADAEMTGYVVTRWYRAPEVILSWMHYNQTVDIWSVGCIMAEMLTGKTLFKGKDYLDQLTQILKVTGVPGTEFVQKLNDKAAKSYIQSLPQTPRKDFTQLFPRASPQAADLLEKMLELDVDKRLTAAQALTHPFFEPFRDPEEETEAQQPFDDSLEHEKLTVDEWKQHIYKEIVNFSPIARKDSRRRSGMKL

[3] = biological target: Ribosomal protein S6 kinase beta-1 (Homo sapiens) (UniProt P23443); test: RPS6KB1 Invitrogen selectivity data (BI); details: Compound concentration 3.0 uM
[4] = biological target: Somatostatin receptor type 1 (Homo sapiens) (UniProt P30872); test: SST1H_AGON Cerep selectivity data (BI); details: filed as agonist, Compound concentration 20.0 uM
[5] = biological target: T2, MAP/microtubule affinity-regulating kinase 4 (Homo sapiens) (UniProt Q96L34); test: MARK4 Invitrogen selectivity data (BI); details: Compound concentration 3.0 uM
T2 sequence (whole entry): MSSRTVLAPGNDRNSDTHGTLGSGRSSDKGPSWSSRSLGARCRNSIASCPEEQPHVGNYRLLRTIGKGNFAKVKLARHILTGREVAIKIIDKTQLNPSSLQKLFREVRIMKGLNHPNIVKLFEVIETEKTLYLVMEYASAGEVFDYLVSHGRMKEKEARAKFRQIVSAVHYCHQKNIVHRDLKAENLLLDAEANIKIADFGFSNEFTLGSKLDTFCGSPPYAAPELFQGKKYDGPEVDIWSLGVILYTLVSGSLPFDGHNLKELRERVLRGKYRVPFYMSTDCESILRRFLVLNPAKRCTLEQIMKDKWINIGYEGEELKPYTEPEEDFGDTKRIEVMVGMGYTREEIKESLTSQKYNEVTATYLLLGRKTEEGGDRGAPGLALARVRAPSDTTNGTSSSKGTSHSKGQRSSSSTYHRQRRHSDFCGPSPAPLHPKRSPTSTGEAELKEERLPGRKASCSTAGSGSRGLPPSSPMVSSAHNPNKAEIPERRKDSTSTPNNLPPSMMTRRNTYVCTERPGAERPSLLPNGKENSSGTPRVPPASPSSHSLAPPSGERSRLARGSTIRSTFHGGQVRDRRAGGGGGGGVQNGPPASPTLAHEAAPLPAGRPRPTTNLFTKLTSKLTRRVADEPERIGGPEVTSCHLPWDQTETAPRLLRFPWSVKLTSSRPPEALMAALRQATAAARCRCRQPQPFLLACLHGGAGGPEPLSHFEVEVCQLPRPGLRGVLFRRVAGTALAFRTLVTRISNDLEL

[6] = biological target: T3, Muscle, skeletal receptor tyrosine-protein kinase (Homo sapiens) (UniProt O15146); test: MUSK Invitrogen selectivity data (BI); details: Compound concentration 3.0 uM
T3 sequence (whole entry): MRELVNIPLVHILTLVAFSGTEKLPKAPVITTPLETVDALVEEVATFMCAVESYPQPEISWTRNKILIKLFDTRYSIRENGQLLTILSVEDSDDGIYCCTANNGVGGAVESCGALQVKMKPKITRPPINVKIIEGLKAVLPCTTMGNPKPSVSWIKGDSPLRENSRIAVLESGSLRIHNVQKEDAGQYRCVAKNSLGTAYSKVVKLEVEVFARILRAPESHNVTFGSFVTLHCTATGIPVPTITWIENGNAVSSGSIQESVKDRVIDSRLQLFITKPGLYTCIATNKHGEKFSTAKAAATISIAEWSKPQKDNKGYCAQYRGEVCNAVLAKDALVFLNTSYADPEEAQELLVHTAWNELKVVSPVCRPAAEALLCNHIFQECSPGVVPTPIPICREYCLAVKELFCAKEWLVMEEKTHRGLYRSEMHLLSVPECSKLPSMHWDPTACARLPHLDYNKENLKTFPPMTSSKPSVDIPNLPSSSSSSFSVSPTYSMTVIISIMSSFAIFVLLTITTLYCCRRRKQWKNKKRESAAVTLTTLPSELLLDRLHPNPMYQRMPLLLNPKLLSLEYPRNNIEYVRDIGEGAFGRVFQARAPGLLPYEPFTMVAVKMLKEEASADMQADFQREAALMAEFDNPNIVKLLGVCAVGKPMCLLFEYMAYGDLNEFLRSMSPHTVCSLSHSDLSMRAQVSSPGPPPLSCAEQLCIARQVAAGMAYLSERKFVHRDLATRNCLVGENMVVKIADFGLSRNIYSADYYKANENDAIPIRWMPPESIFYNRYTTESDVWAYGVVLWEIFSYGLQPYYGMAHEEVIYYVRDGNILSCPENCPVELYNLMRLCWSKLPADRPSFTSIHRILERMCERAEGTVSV

[7] = biological target: Serine/threonine-protein kinase PLK3 (Homo sapiens) (UniProt Q9H4B4); test: PLK3 Invitrogen selectivity data (BI); details: Compound concentration 3.0 uM
[8] = biological target: Serine/threonine-protein kinase PAK 1 (Homo sapiens) (UniProt Q13153); test: PAK1 Invitrogen selectivity data (BI); details: Compound concentration 3.0 uM
[9] = biological target: Histamine H2 receptor (Homo sapiens) (UniProt P25021); test: H2/APT/HS Cerep selectivity data (BI); details: filed as antagonist, Compound concentration 20.0 uM
[10] = biological target: Acetylcholine receptor subunit alpha (Homo sapiens) (UniProt P02708); test: NACH/H Eurofins-Panlabs selectivity data (BI); details: Compound concentration 10.0 uM
[11] = biological target: Serine/threonine-protein kinase Nek4 (Homo sapiens) (UniProt P51957); test: NEK4 Invitrogen selectivity data (BI); details: Compound concentration 3.0 uM

Measured: residual activity

Chain of RAC-beta serine/threonine-protein kinase (Homo sapiens) (P31751 whole entry): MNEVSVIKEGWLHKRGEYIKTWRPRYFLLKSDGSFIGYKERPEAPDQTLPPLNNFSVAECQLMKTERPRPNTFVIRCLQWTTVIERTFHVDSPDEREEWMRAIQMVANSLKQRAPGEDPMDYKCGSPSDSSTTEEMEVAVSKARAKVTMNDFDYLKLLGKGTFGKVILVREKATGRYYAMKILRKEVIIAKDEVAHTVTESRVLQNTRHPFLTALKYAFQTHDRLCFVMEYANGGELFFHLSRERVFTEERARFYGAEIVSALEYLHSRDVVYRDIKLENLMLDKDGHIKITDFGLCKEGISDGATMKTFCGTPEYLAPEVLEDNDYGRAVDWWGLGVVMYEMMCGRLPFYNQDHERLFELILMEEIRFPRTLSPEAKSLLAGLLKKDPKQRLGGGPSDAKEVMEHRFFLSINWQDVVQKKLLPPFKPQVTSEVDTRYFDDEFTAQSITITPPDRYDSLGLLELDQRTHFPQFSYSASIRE
Chain of Acetylcholine receptor subunit alpha (Homo sapiens) (P02708 whole entry): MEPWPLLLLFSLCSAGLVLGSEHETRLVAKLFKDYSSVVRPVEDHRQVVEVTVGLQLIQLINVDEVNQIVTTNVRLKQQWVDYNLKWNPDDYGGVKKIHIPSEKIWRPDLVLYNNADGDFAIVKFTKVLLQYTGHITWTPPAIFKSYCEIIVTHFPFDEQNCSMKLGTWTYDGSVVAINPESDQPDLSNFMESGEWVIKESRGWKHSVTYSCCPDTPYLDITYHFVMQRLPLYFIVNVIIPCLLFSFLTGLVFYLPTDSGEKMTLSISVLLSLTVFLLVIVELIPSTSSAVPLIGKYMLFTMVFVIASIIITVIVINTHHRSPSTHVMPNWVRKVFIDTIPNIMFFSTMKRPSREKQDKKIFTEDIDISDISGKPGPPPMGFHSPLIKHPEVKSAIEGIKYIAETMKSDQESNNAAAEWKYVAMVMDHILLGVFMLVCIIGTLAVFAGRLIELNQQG
Chain of Histamine H2 receptor (Homo sapiens) (P25021 whole entry): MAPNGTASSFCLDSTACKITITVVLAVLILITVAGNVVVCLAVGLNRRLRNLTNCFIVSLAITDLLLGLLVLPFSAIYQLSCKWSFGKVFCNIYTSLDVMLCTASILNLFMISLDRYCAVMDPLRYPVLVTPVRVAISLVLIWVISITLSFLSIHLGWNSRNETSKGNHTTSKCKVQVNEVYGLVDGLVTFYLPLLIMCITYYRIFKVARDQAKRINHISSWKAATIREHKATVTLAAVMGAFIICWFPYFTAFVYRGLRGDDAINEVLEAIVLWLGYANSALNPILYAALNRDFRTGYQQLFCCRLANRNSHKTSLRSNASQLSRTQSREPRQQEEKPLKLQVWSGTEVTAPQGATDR
Chain of Serine/threonine-protein kinase PAK 1 (Homo sapiens) (Q13153 whole entry): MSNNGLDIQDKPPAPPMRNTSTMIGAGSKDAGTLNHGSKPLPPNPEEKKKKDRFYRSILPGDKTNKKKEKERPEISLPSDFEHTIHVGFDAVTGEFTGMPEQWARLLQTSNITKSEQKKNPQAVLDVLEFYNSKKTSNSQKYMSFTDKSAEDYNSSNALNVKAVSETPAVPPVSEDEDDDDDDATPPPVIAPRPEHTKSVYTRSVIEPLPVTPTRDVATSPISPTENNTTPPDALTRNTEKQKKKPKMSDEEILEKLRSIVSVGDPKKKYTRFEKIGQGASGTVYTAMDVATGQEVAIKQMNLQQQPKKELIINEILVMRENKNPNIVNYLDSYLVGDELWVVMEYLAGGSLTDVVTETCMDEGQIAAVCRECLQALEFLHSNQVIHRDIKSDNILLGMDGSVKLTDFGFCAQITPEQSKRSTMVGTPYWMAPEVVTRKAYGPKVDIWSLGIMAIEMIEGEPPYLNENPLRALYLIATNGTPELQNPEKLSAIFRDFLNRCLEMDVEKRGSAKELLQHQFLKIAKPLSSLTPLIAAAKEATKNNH
Chain of Serine/threonine-protein kinase Nek4 (Homo sapiens) (P51957 whole entry, looked up): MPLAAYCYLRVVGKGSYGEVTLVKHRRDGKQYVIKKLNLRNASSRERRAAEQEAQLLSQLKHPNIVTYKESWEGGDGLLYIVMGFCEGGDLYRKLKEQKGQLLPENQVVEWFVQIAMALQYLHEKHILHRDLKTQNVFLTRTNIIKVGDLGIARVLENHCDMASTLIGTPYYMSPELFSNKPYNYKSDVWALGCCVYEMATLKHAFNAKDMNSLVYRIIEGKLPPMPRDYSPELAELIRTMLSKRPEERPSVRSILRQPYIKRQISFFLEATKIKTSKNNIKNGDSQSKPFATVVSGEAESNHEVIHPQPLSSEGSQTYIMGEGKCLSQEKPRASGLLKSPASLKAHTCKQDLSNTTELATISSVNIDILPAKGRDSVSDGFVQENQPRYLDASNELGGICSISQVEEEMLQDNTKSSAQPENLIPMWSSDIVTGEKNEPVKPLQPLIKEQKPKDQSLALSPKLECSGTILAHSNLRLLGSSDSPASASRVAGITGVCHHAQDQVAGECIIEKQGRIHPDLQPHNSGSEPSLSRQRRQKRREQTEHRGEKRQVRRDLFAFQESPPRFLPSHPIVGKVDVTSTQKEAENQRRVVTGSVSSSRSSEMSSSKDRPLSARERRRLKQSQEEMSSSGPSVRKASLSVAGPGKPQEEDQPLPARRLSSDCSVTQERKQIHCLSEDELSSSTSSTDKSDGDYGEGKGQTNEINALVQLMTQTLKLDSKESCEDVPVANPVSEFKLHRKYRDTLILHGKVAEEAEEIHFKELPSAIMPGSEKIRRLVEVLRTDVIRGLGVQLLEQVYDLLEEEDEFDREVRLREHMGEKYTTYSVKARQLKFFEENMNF
Chain of Ribosomal protein S6 kinase beta-1 (Homo sapiens) (P23443 whole entry, looked up): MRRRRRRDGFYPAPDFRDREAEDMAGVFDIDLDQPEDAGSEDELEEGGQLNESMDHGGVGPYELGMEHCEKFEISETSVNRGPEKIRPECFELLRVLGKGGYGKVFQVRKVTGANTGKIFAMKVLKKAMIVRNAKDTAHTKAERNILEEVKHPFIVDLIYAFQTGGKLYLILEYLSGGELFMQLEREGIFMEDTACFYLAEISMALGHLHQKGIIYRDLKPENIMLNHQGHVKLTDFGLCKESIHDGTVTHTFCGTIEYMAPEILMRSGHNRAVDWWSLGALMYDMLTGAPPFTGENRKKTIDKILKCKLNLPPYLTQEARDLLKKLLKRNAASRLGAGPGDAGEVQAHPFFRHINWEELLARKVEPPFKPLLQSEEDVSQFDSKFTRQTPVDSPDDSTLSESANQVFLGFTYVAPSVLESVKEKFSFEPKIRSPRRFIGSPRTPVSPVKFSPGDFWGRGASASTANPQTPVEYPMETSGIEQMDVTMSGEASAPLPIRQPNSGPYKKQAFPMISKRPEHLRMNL
Chain of Serine/threonine-protein kinase PLK3 (Homo sapiens) (Q9H4B4 whole entry, looked up): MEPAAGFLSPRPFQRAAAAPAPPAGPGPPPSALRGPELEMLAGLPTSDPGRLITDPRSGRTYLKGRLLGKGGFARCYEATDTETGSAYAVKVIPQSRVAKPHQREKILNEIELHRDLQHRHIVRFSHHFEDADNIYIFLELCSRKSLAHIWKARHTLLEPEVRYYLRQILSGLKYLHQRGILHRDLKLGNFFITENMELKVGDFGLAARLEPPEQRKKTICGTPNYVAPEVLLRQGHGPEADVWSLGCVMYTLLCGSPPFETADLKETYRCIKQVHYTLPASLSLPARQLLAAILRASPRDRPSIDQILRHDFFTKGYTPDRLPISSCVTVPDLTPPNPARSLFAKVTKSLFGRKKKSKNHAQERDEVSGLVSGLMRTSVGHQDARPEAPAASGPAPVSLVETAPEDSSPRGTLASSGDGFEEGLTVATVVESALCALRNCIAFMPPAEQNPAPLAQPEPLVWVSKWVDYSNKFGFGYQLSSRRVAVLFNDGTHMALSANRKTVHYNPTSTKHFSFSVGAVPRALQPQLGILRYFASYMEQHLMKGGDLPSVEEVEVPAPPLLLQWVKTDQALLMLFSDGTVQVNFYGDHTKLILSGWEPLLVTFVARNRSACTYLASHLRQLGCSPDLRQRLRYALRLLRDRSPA
Chain of Somatostatin receptor type 1 (Homo sapiens) (P30872 whole entry): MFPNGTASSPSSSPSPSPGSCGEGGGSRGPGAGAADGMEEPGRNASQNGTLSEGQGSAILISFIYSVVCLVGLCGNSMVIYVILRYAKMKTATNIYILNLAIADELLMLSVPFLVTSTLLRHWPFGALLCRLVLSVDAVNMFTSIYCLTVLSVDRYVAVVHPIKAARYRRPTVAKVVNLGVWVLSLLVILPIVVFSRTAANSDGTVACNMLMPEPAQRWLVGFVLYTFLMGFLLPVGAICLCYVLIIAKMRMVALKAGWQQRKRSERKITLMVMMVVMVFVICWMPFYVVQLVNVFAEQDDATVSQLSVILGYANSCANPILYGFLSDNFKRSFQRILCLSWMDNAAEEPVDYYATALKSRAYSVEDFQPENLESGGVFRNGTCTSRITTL

CN(C)C(=O)Cn1cc(-c2nc([C@@](C)(c3ccc(-c4cnc(N)nc4)cc3)C3CC3)no2)cn1 [BI 665915]
inactive: [1] 98% | [2] 96.5% | [3] 97.5% | [4] 96% | [5] 104% | [6] 97.5% | [7] 98% | [8] 96% | [9] 96% | [10] 97% | [11] 97%
